“And” between values parts separate entries of the source, which are not always exact repeats. Equal values may be shown once.
Legend:
H22 liver cancer cells = test: subcutaneous H22 liver tumor model in mice, tumor size and volume; type: in vivo, BALB/c mice; conditions: for volume: individual mice, 50 μM 100 μl on day 1 and day 7
Procedure: The liver cancer tumor models are established by subcutaneously injecting H22 hepatoma cells. […] The further statistical analysis (see FIG. 6) confirms that as compared with the other two, AZT-QX has greater effectiveness p<0.01, and at a low dosage (0.13 mg/kg at a time, twice).
FIG. 6 illustrates the average growth of tumors in mice after administration and tumors in mice after 12 days, in which FIG. 6a is a figure of the average growth of tumors in mice; FIG. 6b is contrast of tumors in mice 12 days after different drug treatments. The control is a blank contrast, AZT is Zidovudine, AZT-QX is application of the compound of the invention.

[1] = body weight of mice in the H22 liver tumor model; conditions: individual mice, 50 μM 100 μl on day 1 and day 7, in g (unit assumed)
From the text: Animal groups and drug administration: mice are divided into 3 groups once tumors reach an average size of 8.8×8.8 mm.

[2] = tested on: normal human liver cells HL-7702; test: MTT cell viability assay, HL-7702; conditions: MTT after 72 hours
Procedure: (§1) Cell culture: cancer cell lines HepG2 and Hep3B are obtained from ATCC (VA, USA), Human liver cells HL-7702 and murine liver cancer cells H22 are obtained from Shanghai Institute of Life Science Cell Culture Center (Shanghai, China). All the cells are maintained in high glucose DMEM or RPMI-1640 medium (Invitrogen, GA, USA) supplemented with 10% heat-inactivated fetal bovine serum (FBS), 25 mM HEPES, 2 mM L-glutamine, 0.1 mM nonessential amino acids, 1.0 mM sodium pyruvate, 50 U/mL penicillin, and 50 ug/ml streptomycin at 37° C. and 5% CO2.
(§2) Methods of cell viability assay: liver cells are seeded on 96-well plates, AZT-QX, Zidovudine, quinoline piperazine derivatives and doxorubicin are added in respectively, the concentration thereof are from 1 nM to […]. After 72 hours, an MTT assay is carried out to determine the cell viability [See method in: Zhou, et al. Chem. Res. Toxicol. 2008, 21, 732-738.].
(§3) Selective biological activity of AZT-QX is assessed using cell viability assays MTT on human liver carcinoma cells with hepatitis B Hep3B, hepatoblastoma cell line HepG2 and normal human liver cells HL-7702 (FIG. 3).
(§4) FIG. 3 illustrates determined cell viability of Hep3B hepatoma cells with hepatitis B, a HepG2 hepatoblastoma cell line and HL-7702 normal […] treated with AZT-QX (FIG. 3a), doxorubicin (FIG. 3b), Pip-QX (FIG. 3c), and Zidovudine (FIG. 3d).

[3] = tested on: normal liver cells HL-7702; test: anti-BrdU fluorescence assay of nucleic acid synthesis, normal liver cells; type: cell-based, human
From the text: (§5) The anti-BrdU fluorescence assay is used to determine the nucleic acid synthesis in cells (FIG. 4).
(§6) FIG. 4 illustrates fluorescence images of an anti-BrdU assay of nucleic acid synthesis in cells. As shown in the figure, the green fluorescence illustrates the nucleic acid synthesis in cells, and the blue fluorescence illustrates the nuclear staining.

[4] = tested on: hepatoma cells with hepatitis B; test: anti-BrdU fluorescence assay of nucleic acid synthesis, hepatoma cells; type: cell-based
From the text: as §5, §6

[5] = tested on: human liver carcinoma cells with hepatitis B Hep3B; test: MTT cell viability assay, Hep3B; type: cell-based
Procedure: as §1, §2, §3, §4

[6] = tested on: hepatoblastoma cell line HepG2; test: MTT cell viability assay, HepG2; type: cell-based, human; conditions: MTT after 72 hours
Procedure: as §1, §2, §3, §4

Row | Structure (SMILES) | volume (H22 liver cancer cells; Day 1, in mm³ (unit assumed)) | volume (H22 liver cancer cells; Day 3, in mm³ (unit assumed)) | volume (H22 liver cancer cells; Day 4, in mm³ (unit assumed)) | volume (H22 liver cancer cells; Day 5, in mm³ (unit assumed)) | volume (H22 liver cancer cells; Day 6, in mm³ (unit assumed)) | volume (H22 liver cancer cells; Day 7, in mm³ (unit assumed)) | volume (H22 liver cancer cells; Day 8, in mm³ (unit assumed)) | volume (H22 liver cancer cells; Day 9, in mm³ (unit assumed)) | volume (H22 liver cancer cells; Day 10, in mm³ (unit assumed)) | volume (H22 liver cancer cells; Day 11, in mm³ (unit assumed)) | volume (H22 liver cancer cells; Day 12, in mm³ (unit assumed)) | BW ([1]; Day 1) | BW ([1]; Day 2) | BW ([1]; Day 3) | BW ([1]; Day 4) | BW ([1]; Day 5) | BW ([1]; Day 6) | BW ([1]; Day 7) | nucleic acid synthesis in hepatoma cells (green fluorescence) [4] | toxicity to normal liver cells HL-7702 (in words) [2] | other results
1 | Cc1cn([C@H]2C[C@H](n3cc(CNC(=O)CCCCCOc4ccc5c(c4)-c4nc6ccccc6nc4[C@@H]4C(C)(C)CCC[C@]54C)nn3)[C@@H](CO)O2)c(=O)[nH]c1=O [AZT-QX, N-((1-(2-(hydroxymethyl)-5-(5-methyl-2,4-dioxo-3,4-dihydro-pyrimidin-1(2H)-yl)-tetrahydrofuran-3-yl)-1H-1,2,3-triazol-4-yl)methyl)-6-(4b,8,8-trimethyl-4-b,5,6,7,8,8a-hexahydrodibenzo[a,c]phenazin-2-yloxy)hexanamide] | 256 and 288 and 500 | 500 and 405 and 288 | 500 and 364.5 and 405 | 665.5 and 364.5 and 445.5 | 936 and 405 and 550 | 907.5 and 500 and 550 | 1080 and 500 and 600 | 1080 and 665.5 and 666 | 1080 and 786.5 and 726 | 1267.5 and 847 and 726 | 1267.5 and 1008 and 726 | 30.7 and 35.4 and 26.9 | 31.7 and 36.3 and 27.7 | 32 and 36 and 27.6 | 32.5 and 37.1 and 28 | 32.4 and 32.9 and 28.2 | 32.2 and 37 and 28.1 | 32 and 36.3 and 27.9 | effectively inhibits green fluorescence in hepatoma cells | – | volume (H22 liver cancer cells; Day 2): 364.5 and 288 (2×); average tumor growth after 12 days (in words) (H22 liver cancer cells; injected intratumorally on day 1 and day 7, 100 μL): inhibits tumor growth; BW ([1]; Day 8): 33.2 and 36.6 and 28.7; BW ([1]; Day 9): 33.5 and 36.6 and 28.8; BW ([1]; Day 10): 34.1 and 36.7 and 28.7; BW ([1]; Day 11): 34.5 and 36.8 and 29; BW ([1]; Day 12): 35.8 and 37.9 and 29.5; toxicity to human normal liver cells HL-7702 (in words) ([2]; at 200 μM): no significant toxicity; nucleic acid synthesis in normal liver cells HL-7702 [3]: does not affect the nucleic acid synthesis; activity in combination with methotrexate ([5]; Hep3B cells, methotrexate added): additive effect; Hep3B cells killed ([5]; at 20 μM, MTT after 72 hours): 80%; activity after selective inhibition of thymidine kinase by siRNA ([5]; hepatoma cells with hepatitis B, thymidine kinase siRNA): decreased
2 | Cc1cn([C@H]2C[C@H](N=[N+]=[N-])[C@@H](CO)O2)c(=O)[nH]c1=O [Zidovudine] | 220.5 and 364.5 and 405 | 320 and 665.5 and 600 | 650 and 726 and 786.5 | 486 and 936 and 786.5 | 1028.5 and 1183 and 1470 | 1149.5 and 1687.5 and 1568 | 1368 and 3402 and 2560 | 1368 and 3610 and 3240 | 1368 and 3790.5 and 4851 | 1440 and 4400 and 5071.5 | 1960 and 5292 and 4851 | 26.9 and 29.9 and 31.9 | 26.8 and 31.5 and 32 | 26.8 and 31.5 and 31.8 | 27.2 and 31.4 and 33 | 27 and 31.3 and 32.7 | 27.4 and 31.3 and 33.8 | 26.9 and 31.5 and 33.5 | no effect in inhibiting nucleic acid synthesis | no significant toxicity | volume (H22 liver cancer cells; Day 2, in mm³ (unit assumed)): 245 and 550 and 405; BW ([1]; Day 8): 26.6 and 32.7 and 34.1; BW ([1]; Day 9): 27 and 33.3 and 34.2; BW ([1]; Day 10): 27 and 34.5 and 34.4; BW ([1]; Day 11): 27.7 and 36.6 and 35.1; BW ([1]; Day 12): 28.8 and 37.4 and 35.9; toxicity to / killing of Hep3B cells (in words) ([5]; MTT after 72 hours): no significant toxicity; toxicity to / killing of HepG2 cells (in words) [6]: no significant toxicity
3 | COc1cccc2c1C(=O)c1c(O)c3c(c(O)c1C2=O)C[C@@](O)(C(=O)CO)C[C@@H]3O[C@H]1C[C@H](N)[C@H](O)[C@H](C)O1 [doxorubicin] | – | – | – | – | – | – | – | – | – | – | – | – | – | – | – | – | – | – | – | more severe than to hepatoma cells | –
4 | CN1CCN(C(=O)Oc2ccc3c(c2)-c2nc4ccccc4nc2[C@@H]2C(C)(C)CCC[C@]32C)CC1 [pip-QX] | – | – | – | – | – | – | – | – | – | – | – | – | – | – | – | – | – | – | effect similar to AZT-QX | killed all the liver cell lines non-selectively | toxicity to / killing of Hep3B cells (in words) ([5]; MTT after 72 hours): killed all the liver cell lines non-selectively; toxicity to / killing of HepG2 cells (in words) [6]: killed all the liver cell lines non-selectively
